Experiments:
Type in all cases: cell-based
[1] = tested on: microtubule cytoskeleton of human CG neuroblastoma cells; experiment: Antimicrotubule activity, tubulin immunofluorescence microscopy; details: 2 hr at 37° C., read-out: Concentration where microtubule destabilization occurs
Candida albicans SRI 523 = experiment: Agar disc diffusion assay; details: 240 ug/disc, about 24 hr at 37° C.
Protocol: (§1) The activity of the compounds is determined using the following assay. The compound is dissolved in DMSO at a concentration of 6 mg/ml and then diluted with water to a final concentration of 3 mg/ml in 50% DMSO (% DMSO was shown not to be inhibitory to the test organisms). An aliquot (0.08 ml) of each drug solution was transferred to filter paper discs (12.7 mm diameter, Scmeicherand Schuell) for use in the agar diffusion assay. The concentration of each drug on the filter paper disc was 240 ug/disc. The test organisms included the following: Gram-positive aerobes (Staphylococcus aureus SRI 1323, Streptococcus pneumoniae SRI 1167); Gram-negative aerobe (Proteus vulgaris SRI 180); and the yeast Candida albicans SRI 523. An agar disc diffusion assay was used to evaluate the antimicrobial activity of the test compounds. Briefly, cultures were prepared from 16-20 hr agar slant cultures by inoculating in physiological saline to a turbidity equivalent to a #0.5 McFarland turbidity standard for the bacteria and a #3 McFarland standard for C. albicans. The surface of Mueller-Hinton agar (15×100 mm plates, mm) were evenly inoculated with each standardized culture using a cotton swab. Filter paper discs containing the drug concentration listed above were then placed on the inoculated agar plates along with a disc containing the solvent used to dissolve each drug. The plates were incubated at 37° C. for about 24 hr and the diameters of the zones of inhibition measured with a vernier caliper. Positive control drugs consisted of streptomycin for use with the bacterial strains and 5-fluorocytosine for use with C. albicans. The positive control drugs were assayed as described above for the compounds of the present invention using the same concentration.

Proteus vulgaris SRI 180 = experiment: Agar disc diffusion assay; details: 240 ug/disc, about 24 hr at 37° C.; 0 = no measurable zone
Protocol: as §1

[2] = tested on: Staphylococcus aureus SRI 1323; experiment: Agar disc diffusion assay; details: 240 ug/disc, about 24 hr at 37° C.
Protocol: as §1

[3] = tested on: Streptococcus pneumoniae SRI 1167; experiment: Agar disc diffusion assay; details: 240 ug/disc, about 24 hr at 37° C.; + = zone too large to measure
Protocol: as §1

What does the source list for `Cl.Cl.O=C(CCN1CCN(Cc2ccccc2)CC1)c1ccc(F)c2ccccc12` [Example 21, 1-(4″-Fluoronaphth-1″-yl)-3-(4′-benzyl-1′-piperazinyl)-1-propanone dihydrochloride]?
minimal effective concentration [1]: 20 µM; Diameter of the zone of inhibition, C. albicans (Candida albicans SRI 523): 26.6 mm; Diameter of the zone of inhibition, P. vulgaris (Proteus vulgaris SRI 180): 0^1 mm; Diameter of the zone of inhibition, S. aureus [2]: 33.8 mm; Diameter of the zone of inhibition, S. pneumoniae [3]: 40.7 mm

Source: patent US20010025105A1, “Certain substituted 1-aryl-3-piperazine-1'-yl propanones” (Molecular Geriatarics Corporation, priority 1997, published 2001)
